In test [1] the test system is Pyricularia oryzae. Kind of test: Antifungal activity against Magnaporthe oryzae. Type of test: functional, organism-based.
The subject of test [2] is Trichophyton mentagrophytes. Kind of test: Antifungal activity against Trichophyton mentagrophytes. Type of test: functional.
For test [3], the system named is Botrytis cinerea. Kind of test: Antifungal activity against Botryotinia fuckeliana. The format is functional, organism-based.
The test system of test [4] is Botrytis cinerea. As to the kind of experiment: Antifungal activity against Botryotinia fuckeliana assessed as accumulation of squalene using [2-14C]acetate at 3 x 10^-5 M. Type of test: functional.
The subject of test [5] is Botrytis cinerea. Kind of test: Antifungal activity against Botryotinia fuckeliana assessed as accumulation of squalene using [2-14C]acetate at 1 x 10^-5 M. Type of test: functional.
Test [6] deals with Trichophyton mentagrophytes. As to the kind of experiment: Antifungal activity against Trichophyton mentagrophytes assessed as accumulation of squalene using [2-14C]acetate at 1 x 10^-9 M. Type of test: functional.
Test [7] concerns Trichophyton mentagrophytes. Kind of test: Antifungal activity against Trichophyton mentagrophytes assessed as accumulation of squalene using [2-14C]acetate at 1 x 10^-7 M. The format is functional.
The test system of test [8] is Trichophyton mentagrophytes. As to the kind of experiment: Antifungal activity against Trichophyton mentagrophytes assessed as accumulation of squalene using [2-14C]acetate at 1 x 10^-8 M. The format is functional.
Test [9] deals with T1, Squalene epoxidase ERG1 (Saccharomyces cerevisiae S288c) (UniProt P32476).
T1 sequence (whole entry): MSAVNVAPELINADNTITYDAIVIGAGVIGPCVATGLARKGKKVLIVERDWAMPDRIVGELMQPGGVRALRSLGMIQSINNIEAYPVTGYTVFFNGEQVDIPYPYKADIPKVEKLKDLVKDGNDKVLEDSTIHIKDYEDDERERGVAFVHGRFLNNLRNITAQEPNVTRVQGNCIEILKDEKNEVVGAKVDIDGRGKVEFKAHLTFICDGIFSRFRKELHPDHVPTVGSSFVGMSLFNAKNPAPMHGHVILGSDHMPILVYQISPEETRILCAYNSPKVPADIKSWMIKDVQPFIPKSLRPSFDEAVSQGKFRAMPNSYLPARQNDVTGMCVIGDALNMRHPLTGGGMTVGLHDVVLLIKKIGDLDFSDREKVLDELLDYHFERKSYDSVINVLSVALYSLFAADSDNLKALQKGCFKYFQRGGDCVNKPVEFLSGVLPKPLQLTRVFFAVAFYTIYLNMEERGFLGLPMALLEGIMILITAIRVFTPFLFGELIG
As to the kind of experiment: Inhibition of squalene epoxidase in Saccharomyces cerevisiae IFO 1346 assessed as incorporation of [2-14C]mevalonate into 4alpha-methyl sterols at 1 x 10^-5 M after 3 hr. More on the design: scale not given: the % may be the effect or the level left.

Test [10] has as its target T1, Squalene epoxidase ERG1 (Saccharomyces cerevisiae S288c). As to the kind of experiment: Inhibition of squalene epoxidase in Saccharomyces cerevisiae IFO 1346 assessed as incorporation of [2-14C]mevalonate into 4,4-dimethyl sterols at 1 x 10^-5 M after 3 hr. Details: scale not given: the % may be the effect or the level left.
Test [11] shares this target. Kind of test: Inhibition of squalene epoxidase in Saccharomyces cerevisiae IFO 1346 assessed as incorporation of [2-14C]mevalonate into 2,3-oxidosqualene at 1 x 10^-5 M after 3 hr. Details: scale not given: the % may be the effect or the level left.
For test [12] the target is unchanged. As to the kind of experiment: Inhibition of squalene epoxidase in Saccharomyces cerevisiae IFO 1346 assessed as incorporation of [2-14C]mevalonate into squalene at 1 x 10^-5 M after 3 hr. Details: scale not given: the % may be the effect or the level left.
The test system of test [13] is Botrytis cinerea. Kind of test: Antifungal activity against Botryotinia fuckeliana assessed as accumulation of squalene using [2-14C]acetate at 1 x 10^-6 M. Type of test: functional.
In test [14] the test system is Botrytis cinerea. Kind of test: Antifungal activity against Botryotinia fuckeliana assessed as accumulation of squalene using [2-14C]acetate at 1 x 10^-7 M. The format is functional.
The target of test [15] is T1, Squalene epoxidase ERG1 (Saccharomyces cerevisiae S288c). As to the kind of experiment: Inhibition of squalene epoxidase in Saccharomyces cerevisiae IFO 1346 assessed as incorporation of [2-14C]mevalonate into 4-desmethyl sterols at 1 x 10^-5 M after 3 hr. More on the design: scale not given: the % may be the effect or the level left.

From ChEMBL document CHEMBL3046425, “Synthesis of Antifungal 2-Anilino-4-phenylthiazoles and Their Inhibitory Activities on Sterol Biosynthesis” (J Pestic Sci, 2001) come the findings set out here.

In brackets after ≈: the same amount, converted by molar mass.

The EC50 is the concentration at which the effect is half-maximal. A word on the MIC: it is the least concentration at which growth counts as inhibited. Regarding `CC(C)c1ccc(Nc2nc(-c3c(Cl)cccc3Cl)cs2)cc1`, the EC50 in test [1] is 2 µg/mL (≈ 5.5 µM); in test [3], > 100 µg/mL. This compound displayed an MIC in [2] of 0.3 µg/mL (≈ 0.826 µM).
The like results for `Clc1ccc(Nc2nc(-c3c(Cl)cccc3Cl)cs2)cc1Cl` were, in that order, 1 µg/mL (≈ 2.56 µM), 1 µg/mL (≈ 2.56 µM) and 0.1 µg/mL (≈ 0.256 µM).
The corresponding values for `CS(=O)(=O)c1ccc(Nc2nc(-c3c(Cl)cccc3Cl)cs2)cc1` are 3 µg/mL (≈ 7.51 µM), > 100 µg/mL and 3 µg/mL (≈ 7.51 µM).
For the compound `Clc1ccc(Oc2nc(-c3c(Cl)cccc3Cl)cs2)cc1`, the EC50 amounted to 1 µg/mL (≈ 2.8 µM) in [1] and 0.5 µg/mL (≈ 1.4 µM) in [3]. The Activity in [4] came out at 68%; in test [5] it was 61.1%. In test [2], this compound came in with a minimal inhibitory concentration (MIC) of 1 µg/mL (≈ 2.8 µM).
As for `Fc1cccc(F)c1-c1csc(Nc2ccc(Cl)cc2)n1`, the EC50 in test [1] was 1 µg/mL (≈ 3.1 µM); in test [3], > 100 µg/mL. Besides, the MIC in test [2] came out at 0.3 µg/mL (≈ 0.929 µM).
The corresponding values for `CSc1ccc(Nc2nc(-c3c(Cl)cccc3Cl)cs2)cc1` are 4 µg/mL (≈ 10.9 µM), 0.3 µg/mL (≈ 0.817 µM) and 0.1 µg/mL (≈ 0.272 µM).
With `Clc1ccc(Nc2nc(-c3cccc4ccccc34)cs2)cc1`, the figures for the Activity in test [6], in test [7] and in [8] were 25.3%, 83.1% and 11.7%, respectively. For the same compound, the EC50 in test [1] was 2 µg/mL (≈ 5.94 µM); in [3] it was 0.3 µg/mL (≈ 0.891 µM). The same compound registered an MIC in [2] of 0.1 µg/mL (≈ 0.297 µM).
Turning to `FC(F)(F)Oc1ccc(Nc2nc(-c3c(Cl)cccc3Cl)cs2)cc1`, the EC50 in test [1] is 0.3 µg/mL (≈ 0.74 µM); in test [3] it was 0.5 µg/mL (≈ 1.23 µM). The same compound gave an MIC in test [2] of 0.03 µg/mL (≈ 0.074 µM).
The corresponding values for `CC(C)Oc1ccc(Nc2nc(-c3c(Cl)cccc3Cl)cs2)cc1` are 3 µg/mL (≈ 7.91 µM), > 100 µg/mL and 30 µg/mL (≈ 79.1 µM).
The like results for `Clc1ccc(Nc2nc(-c3c(Cl)cccc3Cl)ns2)cc1` were, in that order, 0.6 µg/mL (≈ 1.68 µM), 0.2 µg/mL (≈ 0.561 µM) and 0.1 µg/mL (≈ 0.28 µM).
Turning to `Cc1cccc(C)c1-c1csc(Nc2ccc(Cl)cc2)n1`, the EC50 in test [1] was found to be 10 µg/mL (≈ 31.8 µM); in test [3], 0.05 µg/mL (≈ 0.159 µM). Besides, the lowest concentration to inhibit growth in [2] (MIC) was 0.1 µg/mL (≈ 0.318 µM).
On to `Fc1ccc(Nc2nc(-c3c(Cl)cccc3Cl)cs2)cc1`, for which the EC50 in test [1] is 3 µg/mL (≈ 8.84 µM); in [3], 0.2 µg/mL (≈ 0.59 µM). This compound came in with an MIC in test [2] of 0.1 µg/mL (≈ 0.295 µM).
As for `Clc1cccc(Cl)c1-c1csc(Nc2ccc(Br)cc2)n1`, the EC50 in test [1] was determined as 0.5 µg/mL (≈ 1.25 µM); in [3], 0.05 µg/mL (≈ 0.125 µM). In test [2], this compound yielded an MIC of 0.03 µg/mL (≈ 0.075 µM).
For the compound `CN(c1ccc(Cl)cc1)c1nc(-c2c(Cl)cccc2Cl)cs1`, the EC50 in test [1] is 1 µg/mL (≈ 2.7 µM); in test [3], > 100 µg/mL. Further, the Activity in test [4] worked out at 2%. Besides, in [2], 3 µg/mL (≈ 8.11 µM) was the least that counted as inhibitory (MIC).
With `CC(C)(C)c1ccc(Nc2nc(-c3c(Cl)cccc3Cl)cs2)cc1`, the EC50 in test [1] was 1 µg/mL (≈ 2.65 µM); in test [3], > 100 µg/mL. In addition, the MIC in test [2] is > 100 µg/mL.
Regarding `Cc1ccc(Nc2nc(-c3c(Cl)cccc3Cl)cs2)cc1`, the figures for the EC50 in [1] and in test [3] were 3 µg/mL (≈ 8.95 µM) and 0.3 µg/mL (≈ 0.895 µM), respectively. For the same compound, in test [2], it took 0.1 µg/mL (≈ 0.298 µM) to inhibit growth (MIC).
The corresponding values for `Clc1ccc(Nc2nc(-c3cccc(Cl)c3Cl)cs2)cc1` are > 100 µg/mL, > 100 µg/mL and 3 µg/mL (≈ 8.43 µM).
Turning to `Cc1cccc(N(C)C(=S)Oc2ccc3ccccc3c2)c1` [TOLNAFTATE], the Activity in test [6] came out at 74.2%; in [9] it was 1.2%; in test [10] it was 1.9%; in test [11], 3.5%; in [12] it was 49%; in test [5] it was 79%. The Activity in test [13] is 66%; in test [14], 10%; in test [7], 81.5%; in test [8] it was 72.1%; in [15] it was 43.6%.
On to `Clc1ccc(Nc2nc(-c3c(Cl)cccc3Cl)cs2)c(Cl)c1`, for which the results for the EC50 in test [1] and in test [3] were 5 µg/mL (≈ 12.8 µM) and > 100 µg/mL, respectively. In addition, the MIC in test [2] was found to be 0.3 µg/mL (≈ 0.769 µM).
